Assay results from patent publication US20250034127A1, “AUTOPHAGY INDUCING COMPOUNDS AND USES THEREOF, IN PARTICULAR FOR DISEASES OF THE CNS” (Samsara Therapeutics Inc., priority 2021, published 2025).

Test system: primary culture of dopaminergic Tyrosine hydroxylase (TH)-positive neurons
Experiment: Cellular model of Parkinson's disease (MPTP/MPP+ injury)
Assay type: cell-based, rat
Text: This model (run by Neuro-Sys SAS, France) is based on a primary culture of dopaminergic Tyrosine hydroxylase (TH)-positive neurons injured with the dopaminergic neurons-specific toxin (DA-toxin) 1-methyl-4-phenyl-1,2,3,6 tetrahydropyridine (MPTP, a prodrug of MPP^+) (Dauer and Przedborski, 2003). Any substances reducing DA-toxin neurotoxicity may be useful as a new therapeutic agent for the treatment or prevention of PD.
Primary culture of mesencephalic neurons: Rat dopaminergic neurons were cultured as described by Visanji et al., 2008 and Callizot et al., 2019. Briefly, pregnant female rat (Wistar) of 15 days of gestation were killed using a deep anesthesia with CO2 chamber and a cervical dislocation. The midbrains obtained from 15-day-old rat embryos (Janvier, France) were dissected under a microscope. The embryonic midbrains will be removed and placed in ice-cold medium of Leibovitz (L15) containing 2% of Penicillin-Streptomycin (PS) and 1% of bovine serum albumin (BSA). The ventral portion of the mesencephalic flexure, a region of the developing brain rich in dopaminergic neurons, was used for the cell preparations.
The midbrains were dissociated by trypsinisation for 20 min at 37° C. (solution at a final concentration of 0.05% trypsin and 0.02% EDTA). The reaction was stopped by the addition of Dulbecco's modified Eagle's medium (DMEM) containing DNAase I grade II (0.5 mg/mL) and 10% of foetal calf serum (FCS). Cells were then mechanically dissociated by 3 passages through a 10 ml pipette. Cells were then centrifuged at 180×g for 10 min at +4° C. on a layer of BSA (3.5%) in L15 medium. The supernatant was discarded, and the cell pellets re-suspended in a defined culture medium consisting of Neurobasal supplemented with B27 (2%), L-glutamine (2 mM) and 2% of PS solution and 10 ng/mL of Brain-derived neurotrophic factor (BDNF) and 1 ng/ml of Glial-Derived Neurotrophic Factor (GDNF). Viable cells were counted in a Neubauer cytometer using the trypan blue exclusion test. The cells were seeded at a density of 40,000 cells/well in 96 well-plates (pre-coated with poly-L-lysine) and maintained in a humidified incubator at 37° C. in 5% CO2/95% air atmosphere. Half of the medium was changed every 2 days with fresh medium. The wells of first and last lines and columns […] (to avoid any edge effect) and were be filled with sterile water.
• i) Pre-incubation. On day 6 of culture, the test compounds were dissolved in PBS or DMSO and incubated for 1 hour before the MPTP exposure. • ii) Injury. One hour after the application of test compound, MPTP was added to a final concentration of 4 μM, diluted in control medium still in presence of compounds/inhibitors for 48 h. Test compounds were tested on one culture in 96-well plate (n=6 culture wells per condition).
Immunostaining: TH and α-Synuclein. 48 Hours after intoxication, the cell culture supernatant was removed, and the cells were fixed by a solution of 4% paraformaldehyde in PBS, pH=7.3 for 20 min at room temperature. The cells were washed twice in PBS, and then permeabilized. Non-specific sites were blocked with a solution of PBS containing 0.1% of saponin and 1% FCS for 15 min at room temperature. The cultures were incubated with: (a) monoclonal anti-Tyrosine Hydroxylase (TH) antibody produced in mouse at dilution of 1/10000 in PBS containing 1% FCS, 0.1% saponin, for 2 hours at room temperature, and (b) polyclonal anti-alpha synuclein (α-synuclein) antibody produced in rabbit at dilution of 1/200 in PBS containing 1% FCS, 0.1% saponin, for 2 h at room temperature.
Automatic computer analysis. For each condition, 20 pictures (representing the whole well area) were automatically taken using ImageXpress® (Molecular Devices) at 10× magnification (20 pictures, for TH and α-synuclein into TH neurons) using the same acquisition parameters. From images, analyses was directly and automatically performed by MetaXpress® (Molecular Devices). […]

[1] = 500 nM, compared to MPP+ injury alone

CCN1CCC(N(C)C(=O)c2csc(-c3cnn(-c4ccccc4)c3)n2)CC1 [Compound 196, N-(1-ethylpiperidin-4-yl)-N-methyl-2-(1-phenyl-1H-pyrazol-4-yl)-1,3-thiazole-4-carboxamide]
effects in the in vitro model of PD based on MPP+ injury: positive effects | decrease in α-syn area per dopaminergic TH positive neuron (100 nM, compared to MPP+ injury alone): 26% | decrease in α-syn area per dopaminergic TH positive neuron [1]: 35% | increase in the number of dopaminergic TH positive neurons [1]: 26% | decrease in α-syn area per dopaminergic TH positive neuron (1 μM, compared to MPP+ injury alone): 19%
